Earlier results as cited in patent publication US20060134300A1, “Nutritional supplement for caffeine-containing beverages” (priority 2004, published 2006).

Tests used:
[1] = test system: sympathetic nervous system; conditions: intraventricular administration
rats = conditions: rat, in vivo
[2] = test system: adrenaline and noradrenaline; conditions: triple dose of caffeine
[3] = dose of 150 mg/kg, extended wakefulness
[4] = test system: subjects put under stress; conditions: 100 mg/kg, within an hour of ingesting

NCCS(=O)(=O)O [taurine, 2-aminoethanesulfonic acid]
sympathetic nerve activity [1]: inhibited sympathetic nerve activity
LD 50 (rats): greater than 5,000 mg/kg

Cn1c(=O)c2c(ncn2C)n(C)c1=O [caffeine, 1,3,7-trimethylxanthine]
catecholamines (adrenaline and noradrenaline) [2]: significantly increased

N[C@@H](Cc1ccc(O)cc1)C(=O)O [tyrosine]
lapse probability on a high-event-rate vigilance task [3]: significant reduction
performance decline on a psychomotor task [3]: significant amelioration
cognitive performance [4]: improved their cognitive performance
